This passage reports IC50 results from patent US10233182B2, “Substituted spirocyclic inhibitors of autotaxin” (X-Rx, Inc., priority 2014, dated 2019).

Structures are written as SMILES. Structures can show the parent of a compound that is named as a salt.

This assay concerns the target Autotaxin (Homo sapiens (Human), UniProt Q13822). As to the kind of experiment: Autotaxin LPC Cascade Assay. Format: biochemical. Conditions: Autotaxin 5 nM, LPC 100 μM, choline oxidase/HRP/Ampliflu Red fluorescence read-out, 2% DMSO, RT; read-out: IC50 ATX Activity. Summed up:
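Choline liberated from LPC by autotaxin during 1 h, after a 10-min RT compound preincubation, was converted through choline oxidase/HRP to a fluorescent Ampliflu Red product.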
For `COc1ccc(F)c(C(=O)N[C@@H](C(=O)N2CCC3(CC2)C(=O)N(C)C(=O)N3c2ccc3[nH]ncc3c2)C(C)C)c1` [Example 63, (R)—N-(1-(1-(1H-Indazol-5-yl)-3-methyl-2,4-dioxo-1,3,8-triazaspiro[4.5]decan-8-yl)-3-methyl-1-oxobutan-2-yl)-2-fluoro-5-methoxybenzamide], the IC50 lay in the range of 500 to 1000 nM.
For the molecule `CC(C)[C@@H](NC(=O)c1cc(OC(F)F)ccc1F)C(=O)N1CCC2(CC1)C(=O)N(C)C(=O)N2c1ccc2[nH]ncc2c1` [Example 64, (R)—N-(1-(1-(1H-Indazol-5-yl)-3-methyl-2,4-dioxo-1,3,8-triazaspiro[4.5]decan-8-yl)-3-methyl-1-oxobutan-2-yl)-5-(difluoromethoxy)-2-fluorobenzamide], the IC50 was under 500 nM.
In the case of `CC(C)[C@@H](NC(=O)c1cc(Cl)ccc1Cl)C(=O)N1CCC2(CC1)C(=O)N(C)C(=O)N2c1ccc2[nH]ncc2c1` [Example 65, (R)—N-(1-(1-(1H-Indazol-5-yl)-3-methyl-2,4-dioxo-1,3,8-triazaspiro[4.5]decan-8-yl)-3-methyl-1-oxobutan-2-yl)-2,5-dichlorobenzamide], the IC50 is at least 1000 nM.
`CC(C)[C@@H](NC(=O)c1cc(F)ccc1F)C(=O)N1CCC2(CC1)C(=O)N(C)C(=O)N2c1ccc2[nH]ncc2c1` [Example 66, (R)—N-(1-(1-(1H-Indazol-5-yl)-3-methyl-2,4-dioxo-1,3,8-triazaspiro[4.5]decan-8-yl)-3-methyl-1-oxobutan-2-yl)-2,5-difluorobenzamide]: the IC50 was in the range of 500 to 1000 nM.
Take `CC(C)[C@@H](NC(=O)C12CC3CC(CC(C3)C1)C2)C(=O)N1CCC2(CC1)C(=O)N(C)C(=O)N2c1ccc2[nH]ncc2c1` [Example 67, (R)—N-(1-(1-(1H-Indazol-5-yl)-3-methyl-2,4-dioxo-1,3,8-triazaspiro[4.5]decan-8-yl)-3-methyl-1-oxobutan-2-yl)-1-admantanecarboxly amide]: the IC50 is at least 1000 nM.
Consider `CC(C)[C@@H](NC(=O)c1cc(C(F)(F)F)ccc1Cl)C(=O)N1CCC2(CC1)C(=O)N(C)C(=O)N2c1ccc2[nH]ncc2c1` [Example 68, (R)—N-(1-(1-(1H-Indazol-5-yl)-3-methyl-2,4-dioxo-1,3,8-triazaspiro[4.5]decan-8-yl)-3-methyl-1-oxobutan-2-yl)-2-chloro-5-(trifluoromethyl)benzamide], for which the IC50 is at least 1000 nM.
Turning to `CC(C)[C@H](NC(=O)c1cc(C(F)(F)F)ccc1F)C(=O)N1CCC2(CC1)C(=O)N(C)C(=O)N2c1ccc2[nH]ncc2c1` [Example 69, (S)—N-(1-(1-(1H-Indazol-5-yl)-3-methyl-2,4-dioxo-1,3,8-triazaspiro[4.5]decan-8-yl)-3-methyl-1-oxobutan-2-yl)-2-fluoro-5-(trifluoromethyl)benzamide], the IC50 is at least 1000 nM.
The same measure for `CN1C(=O)N(c2ccc3[nH]ncc3c2)C2(CCN(C(=O)CNC(=O)c3cc(C(F)(F)F)ccc3F)CC2)C1=O` [Example 70, N-(2-(1-(1H-Indazol-5-yl)-3-methyl-2,4-dioxo-1,3,8-triazaspiro[4.5]decan-8-yl)-2-oxoethyl)-2-fluoro-5-(trifluoromethyl)benzamide]: at least 1000 nM; for `CN1C(=O)N(c2ccc3[nH]ncc3c2)C2(CCN(C(=O)C3(NC(=O)c4cc(C(F)(F)F)ccc4F)CC3)CC2)C1=O` [Example 71, N-(1-(1-(1H-Indazol-5-yl)-3-methyl-2,4-dioxo-1,3,8-triazaspiro[4.5]decane-8-carbonyl)cyclopropyl)-2-fluoro-5-(trifluoromethyl)benzamide]: at least 1000 nM; for `C[C@@H](NC(=O)c1cc(C(F)(F)F)ccc1F)C(=O)N1CCC2(CC1)C(=O)N(C)C(=O)N2c1ccc2[nH]ncc2c1` [Example 72, (R)—N-(1-(1-(1H-Indazol-5-yl)-3-methyl-2,4-dioxo-1,3,8-triazaspiro[4.5]decan-8-yl)-1-oxopropan-2-yl)-2-fluoro-5-(trifluoromethyl)benzamide]: at least 1000 nM.
With `CN1C(=O)N(c2ccc3[nH]ncc3c2)C2(CCN(C(=O)C(C)(C)NC(=O)c3cc(C(F)(F)F)ccc3F)CC2)C1=O` [Example 74, N-(1-(1-(1H-Indazol-5-yl)-3-methyl-2,4-dioxo-1,3,8-triazaspiro[4.5]decan-8-yl)-2-methyl-1-oxopropan-2-yl)-2-fluoro-5-(trifluoromethyl)benzamide] the figure was at least 1000 nM.
With `CC(C)[C@@H](NC(=O)c1cc(C(F)(F)F)ccc1F)C(=O)N1CCC2(CC1)C(=O)N(C)C(=O)N2CC1CC1` [Example 75, (R)—N-(1-(1-(Cyclopropylmethyl)-3-methyl-2,4-dioxo-1,3,8-triazaspiro[4.5]decan-8-yl)-3-methyl-1-oxobutan-2-yl)-2-fluoro-5-(trifluoromethyl)benzamide] the figure was at least 1000 nM; with `CC(C)[C@@H](NC(=O)c1cc(C(F)(F)F)ccc1F)C(=O)N1CCC2(CC1)C(=O)N(C)C(=O)N2C1CC1` [Example 76, (R)—N-(1-(1-Cyclopropyl-3-methyl-2,4-dioxo-1,3,8-triazaspiro[4.5]decan-8-yl)-3-methyl-1-oxobutan-2-yl)-2-fluoro-5-(trifluoromethyl)benzamide], 500 to 1000 nM.
With `CC(C)[C@@H](NC(=O)c1cc(C(F)(F)F)ccc1F)C(=O)N1CCC2(CC1)C(=O)N(C)C(=O)N2C1CCOCC1` [Example 77, (R)-2-Fluoro-N-(3-methyl-1-(3-methyl-2,4-dioxo-1-(tetrahydro-2H-pyran-4-yl)-1,3,8-triazaspiro[4.5]decan-8-yl)-1-oxobutan-2-yl)-5-(trifluoromethyl)benzamide], the IC50 was in the range of 500 to 1000 nM.
Consider `CC(C)[C@@H](NC(=O)c1cc(C(F)(F)F)ccc1F)C(=O)N1CCC2(CC1)C(=O)N(C)C(=O)N2[C@@H](C)c1ccccc1` [Example 78, 2-Fluoro-N—((R)-3-methyl-1-(3-methyl-2,4-dioxo-1-((S)-1-phenylethyl)-1,3,8-triazaspiro[4.5]decan-8-yl)-1-oxobutan-2-yl)-5-(trifluoromethyl)benzamide], for which the IC50 is at least 1000 nM.
The same measure for `CC(C)[C@@H](NC(=O)c1cc(C(F)(F)F)ccc1F)C(=O)N1CCC2(CC1)C(=O)N(C)C(=O)N2CC1CCOCC1` [Example 79, (R)-2-Fluoro-N-(3-methyl-1-(3-methyl-2,4-dioxo-1-((tetrahydro-2H-pyran-4-yl)methyl)-1,3,8-triazaspiro[4.5]decan-8-yl)-1-oxobutan-2-yl)-5-(trifluoromethyl)benzamide]: 500 to 1000 nM; for `CC(C)[C@@H](NC(=O)c1cc(C(F)(F)F)ccc1F)C(=O)N1CCC2(CC1)C(=O)N(C)C(=O)N2[C@H](C)c1ccccc1` [Example 80, 2-Fluoro-N—((R)-3-methyl-1-(3-methyl-2,4-dioxo-1-((R)-1-phenylethyl)-1,3,8-triazaspiro[4.5]decan-8-yl)-1-oxobutan-2-yl)-5-(trifluoromethyl)benzamide]: at least 1000 nM; for `CC(C)[C@@H](NC(=O)c1cc(C(F)(F)F)ccc1F)C(=O)N1CCC2(CC1)C(=O)N(C)C(=O)N2c1ccc(OCC2CNC2)cc1` [Example 81, (R)—N-(1-(1-(4-(Azetidin-3-ylmethoxy)phenyl)-3-methyl-2,4-dioxo-1,3,8-triazaspiro[4.5]decan-8-yl)-3-methyl-1-oxobutan-2-yl)-2-fluoro-5-(trifluoromethyl)benzamide trifluoroacetic Acid Salt]: at least 1000 nM.
Regarding `CC(C)[C@@H](NC(=O)c1cc(C(F)(F)F)ccc1F)C(=O)N1CCC2(CC1)C(=O)N(C)C(=O)N2c1ccc(OCC#N)cc1` [Example 82, (R)—N-(1-(1-(4-(cyanomethoxy)phenyl)-3-methyl-2,4-dioxo-1,3,8-triazaspiro[4.5]decan-8-yl)-3-methyl-1-oxobutan-2-yl)-2-fluoro-5-(trifluoromethyl)benzamide], the IC50 was in the range of 500 to 1000 nM.
With `CC(C)[C@@H](NC(=O)c1cc(C(F)(F)F)ccc1F)C(=O)N1CCC2(CC1)C(=O)N(C)C(=O)N2c1ccc(OCC2COC2)cc1` [Example 83, (R)-2-Fluoro-N-(3-methyl-1-(3-methyl-1-(4-(oxetan-3-ylmethoxy)phenyl)-2,4-dioxo-1,3,8-triazaspiro[4.5]decan-8-yl)-1-oxobutan-2-yl)-5-(trifluoromethyl)benzamide] the figure was under 500 nM; with `CC(C)[C@@H](NC(=O)c1cc(C(F)(F)F)ccc1F)C(=O)N1CCC2(CC1)C(=O)N(C)C(=O)N2c1ccc(OCCO)cc1` [Example 84, (R)-2-Fluoro-N-(1-(1-(4-(2-hydroxyethoxy)phenyl)-3-methyl-2,4-dioxo-1,3,8-triazaspiro[4.5]decan-8-yl)-3-methyl-1-oxobutan-2-yl)-5-(trifluoromethyl)benzamide], under 500 nM.
As to `CC(C)[C@@H](NC(=O)c1cc(C(F)(F)F)ccc1F)C(=O)N1CCC2(CC1)C(=O)N(C)C(=O)N2c1ccc(NC2CNC2)cc1` [Example 86, (R)—N-(1-(1-(4-(Azetidin-3-ylamino)phenyl)-3-methyl-2,4-dioxo-1,3,8-triazaspiro[4.5]decan-8-yl)-3-methyl-1-oxobutan-2-yl)-2-fluoro-5-(trifluoromethyl)benzamide trifluoroacetic Acid Salt], the IC50 was at least 1000 nM.
The same measure for `CC(C)[C@@H](NC(=O)c1cc(C(F)(F)F)ccc1F)C(=O)N1CCC2(CC1)C(=O)N(C)C(=O)N2c1ccc(NC2COC2)cc1` [Example 87, (R)-2-Fluoro-N-(3-methyl-1-(3-methyl-1-(4-(oxetan-3-ylamino)phenyl)-2,4-dioxo-1,3,8-triazaspiro[4.5]decan-8-yl)-1-oxobutan-2-yl)-5-(trifluoromethyl)benzamide]: at least 1000 nM; for `CC(C)[C@@H](NC(=O)c1cc(C(F)(F)F)ccc1F)C(=O)N1CCC2(CC1)C(=O)N(C)C(=O)N2Cc1ccc(C#N)cc1` [Example 88, (R)—N-(1-(1-(4-Cyanobenzyl)-3-methyl-2,4-dioxo-1,3,8-triazaspiro[4.5]decan-8-yl)-3-methyl-1-oxobutan-2-yl)-2-fluoro-5-(trifluoromethyl)benzamide]: under 500 nM.

One may read the IC50 as the concentration at which inhibition is half-maximal.
